Assay results: publication PMC10537354, “Pyrenebutyrate Enhances the Antibacterial Effect of Peptide-Coupled Antisense Peptide Nucleic Acids in Streptococcus pyogenes” (Microorganisms, 2023)

Assays:
[1] = tested on: S. pyogenes serotype M49 strain 591; experiment: Bacterial killing assay, S. pyogenes; type: cell-based, Streptococcus pyogenes; conditions: 6 h; for log CFU reduction: S. pyogenes M49 591, 5 µM CPP–PNA, n = 5
Experimental: (§1) S. pneumoniae serotype 4 strain TIGR4: after culturing, S. pneumoniae serotype 4 strain TIGR4 was diluted to approximately 10^5 CFU/mL in phosphate-buffered saline (PBS)/THY (95%/5%). S. pyogenes serotype M49 strain 591: An overnight culture of S. pyogenes serotype M49 strain 591 was diluted to approximately 10^5 CFU/mL in PBS/BHI (70%/30%). An amount of 400 µL of the respective bacterial suspension was transferred to a 2 mL polypropylene reaction tube. 4-(1-pyrenyl)-butyric acid (Merck, Darmstadt, Germany) was dissolved to 1 M in DMSO. The solution was stored in the dark and further dilution steps were performed in PBS and 3% DMSO. An amount of 50 µL PyB in PBS/DMSO was added to the bacterial suspension at a final concentration of 50–400 µM and pre-incubated for 10 min at 37 °C and 7 rpm (Rotor SB3, Stuart, Staffordshire, UK). An amount of 50 µL PBS served as a mock control. Following pre-incubation, 50 µL of CPP–PNA solution was added to a final concentration of 5–10 µM or as indicated. An amount of 50 µL molecular grade H2O served as a mock control. The reaction tubes were incubated for another 6 h at 37 °C and 7 rpm. Killing kinetics were observed over 12 h. Samples were collected at time points of 2–12 h following addition of CPP–PNAs, and bacteria were plated on BHI solid medium following serial dilution. Agar plates were incubated for 24 h at 37 °C under a 5% CO2 atmosphere and CFUs were counted. The bacterial count at the beginning of the experiment was 1–3 × 10^5 CFU/mL. Each experiment was conducted at least three times in independent biological replicates.

[2] = tested on: S. pneumoniae serotype 4 strain TIGR4; experiment: Bacterial killing assay, S. pneumoniae; type: cell-based, Streptococcus pneumoniae; conditions: for Significance of the effect of PyB pre-treatment on antimicrobial efficacy (CFU reduction): S. pneumoniae TIGR4, 10 µM CPP–PNA, 200 µM PyB 10 min pre-treatment vs none, one-way ANOVA; for Change of antibacterial activity in the presence of PyB (non-significant trend): S. pneumoniae TIGR4, 200 µM PyB pre-treatment, related to proportion of positively charged residues of the CPP; for log CFU reduction: S. pneumoniae TIGR4, CPP-anti-gyrA PNA (10 µM in this experiment), without PyB
Experimental: as §1, with “The bacterial count at the beginning of the experiment was 1–3 × 10^5 CFU/mL.” left out

[3] = tested on: S. pyogenes serotype M49 strain 591; experiment: In vitro time killing assay (killing kinetics over 12 h); type: cell-based, Streptococcus pyogenes; conditions: n = 3
Experimental: as §1
Therefore, the kinetics of the antimicrobial activity of K8-conjugated anti-gyrA PNA in the presence of PyB were studied in an in vitro time killing assay in S. pyogenes. Bacteria were treated with 2.5 or 5 μM CPP-antisense PNAs or scrambled control PNAs (Figure 3) with or without pre-treatment with 100 µM PyB. Samples were collected at 2, 4, 6, and 12 h following antisense treatment. CFUs per milliliter were determined by plating of serial dilutions and plotted over time. Untreated bacteria grew by 1–1.5 log CFU over the course of the experiment. […] Following treatment with 2.5 µM K8-conjugated scPNA, no reduction in bacterial counts was observed throughout the experiment. Upon treatment with 5 µM K8-conjugated scPNA, growth was reduced by 0.6 log CFU in comparison to the untreated control, indicating an inhibitory effect of the CPP under these conditions. Overall, pre-treatment with PyB enhanced the activity of K8-anti-gyrA PNA and allowed the eradication of S. pyogenes in vitro.

## O=C(O)CCCc1ccc2ccc3cccc4ccc1c2c34 [PyB, 4-(1-pyrenyl)-butyric acid, reference compound]
[1]; S. pyogenes 591, 5 × 10^5 CFU/mL, PyB alone 50–200 µM, stated up to 200 µM, n = 4
  Toxicity of PyB (CFU/mL compared to untreated control): No significant toxicity
[1]; S. pyogenes, 200 µM PyB alone, n = 4
  Viable counts after treatment with PyB: decreased slightly
[2]; S. pneumoniae TIGR4, 8 × 10^5 CFU/mL, PyB alone 50–400 µM, 6 h, stated up to 400 µM, n = 4
  Toxicity of PyB (CFU/mL compared to untreated control): unaffected

## KKKKKKKK-eg-attagactgt [K8-anti-gyrA scPNA, Oligolysin (K8) coupled to scrambled control PNA attagactgt, S. pyogenes]
[3]; 2.5 µM scrambled control, 12 h
  Reduction in bacterial counts throughout the experiment: no reduction
[3]; 5 µM scrambled control, 12 h course
  Growth reduction in comparison to the untreated control: 0.6 log CFU

## KKKKKKKK-eg-tgcatttaag [K8-anti-gyrA PNA, Oligolysin (K8) coupled to anti-gyrA PNA tgcatttaag, S. pyogenes]
[1]; after pre-treatment with 100 µM PyB for 10 min
  log CFU reduction: 4.8 log CFU
[1]; without PyB pre-treatment, PBS/BHI (70%/30%)
  log CFU reduction: 3.7 log CFU
[3]; 5 µM, after pre-treatment with 100 µM PyB
  Time until clearance of S. pyogenes CFUs: 12 h
[3]; 2.5 or 5 µM, without PyB, 12 h
  Eradication of S. pyogenes during the course of the assay: not eradicated
[3]; 2.5 or 5 µM, without PyB, samples at 2, 4, 6, 12 h
  Viable bacteria over time: constant decrease

## RQIRIWFQNRRMRWRR-eg-tgcattaata [PenArg-anti-gyrA PNA, PenArg coupled to anti-gyrA PNA tgcattaata, S. pneumoniae]
[2]; 6 h
  Significance of the effect of PyB pre-treatment on antimicrobial efficacy (CFU reduction): no significant effect
  log CFU reduction: 3.3 log CFU
[2]
  Change of antibacterial activity in the presence of PyB (non-significant trend): not enhanced

## RRRRRRRRR-eg-tgcattaata [R9-anti-gyrA PNA, R9 coupled to anti-gyrA PNA tgcattaata, S. pneumoniae]
[2]; 6 h
  Significance of the effect of PyB pre-treatment on antimicrobial efficacy (CFU reduction): no significant effect
  log CFU reduction: 4 log CFU
[2]
  Change of antibacterial activity in the presence of PyB (non-significant trend): slightly increased

## RXRRXRRXRRXRXB-eg ^1 -tgcatttaag [(RXR)4XB-anti-gyrA PNA, (RXR)4XB coupled via eg linker to anti-gyrA PNA tgcatttaag, S. pyogenes]
[2]; 6 h
  Significance of the effect of PyB pre-treatment on antimicrobial efficacy (CFU reduction): did not significantly enhance
[2]
  Change of antibacterial activity in the presence of PyB (non-significant trend): not enhanced
